Source: ChEMBL document CHEMBL1909046, “DrugMatrix in vitro pharmacology data”

Columns and labels:
[1] = biological target: T1, Calcitonin receptor (Homo sapiens, UniProt P30988); assay type: cell membranes, Membrane; settings: t47d; also: in other assays of this panel Not Active means under 50% inhibition at 10 µM
T1 sequence (P30988 whole entry): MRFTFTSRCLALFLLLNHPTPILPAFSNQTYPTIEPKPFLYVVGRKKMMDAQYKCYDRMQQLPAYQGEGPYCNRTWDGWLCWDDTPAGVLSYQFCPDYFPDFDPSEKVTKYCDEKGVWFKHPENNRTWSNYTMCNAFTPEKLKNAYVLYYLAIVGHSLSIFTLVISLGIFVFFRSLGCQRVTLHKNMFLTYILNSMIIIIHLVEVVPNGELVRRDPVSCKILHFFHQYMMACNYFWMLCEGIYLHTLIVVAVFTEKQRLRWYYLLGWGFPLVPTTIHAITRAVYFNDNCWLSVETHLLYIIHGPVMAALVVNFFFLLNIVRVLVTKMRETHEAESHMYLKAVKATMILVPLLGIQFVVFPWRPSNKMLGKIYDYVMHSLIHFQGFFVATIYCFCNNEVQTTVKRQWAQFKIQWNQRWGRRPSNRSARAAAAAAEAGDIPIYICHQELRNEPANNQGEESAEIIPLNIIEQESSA

[2] = biological target: T2, C-X-C chemokine receptor type 1 (Homo sapiens, UniProt P25024); also: in other assays of this panel Not Active means under 50% inhibition at 10 µM
T2 sequence (P25024 whole entry): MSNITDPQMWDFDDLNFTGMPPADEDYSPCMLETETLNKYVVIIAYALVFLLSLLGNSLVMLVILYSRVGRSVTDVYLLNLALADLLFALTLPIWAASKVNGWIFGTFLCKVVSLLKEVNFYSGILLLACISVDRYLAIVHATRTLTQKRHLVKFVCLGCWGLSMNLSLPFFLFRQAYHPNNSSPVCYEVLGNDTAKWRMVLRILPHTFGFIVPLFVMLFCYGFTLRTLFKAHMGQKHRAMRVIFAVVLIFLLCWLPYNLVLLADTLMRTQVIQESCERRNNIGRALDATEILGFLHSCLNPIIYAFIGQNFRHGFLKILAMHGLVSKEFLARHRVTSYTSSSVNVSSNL

[3] = DRUGMATRIX: Glutamate, NMDA, Phencyclidine radioligand binding (ligand: [3H] TCP); assay type: cell membranes, Rattus norvegicus, Wistar, Cerebral cortex, Membrane; settings: Not Active = under 50% inhibition at 10 µM
[4] = biological target: Beta-2 adrenergic receptor (Homo sapiens, UniProt P07550); assay: DRUGMATRIX: Adrenergic beta2 radioligand binding (ligand: [3H] CGP-12177); assay type: cell membranes, Membrane; settings: cho; Not Active = under 50% inhibition at 10 µM
[5] = DRUGMATRIX: Calcium Channel Type L, Benzothiazepine radioligand binding (ligand: [3H] Diltiazem); assay type: cell membranes, Rattus norvegicus, Wistar, Brain, Membrane; settings: Not Active = under 50% inhibition at 10 µM
[6] = biological target: Vascular endothelial growth factor receptor 1 (Homo sapiens, UniProt P17948); assay type: cell-based; settings: huvec; also: in other assays of this panel Not Active means under 50% inhibition at 10 µM
[7] = DRUGMATRIX: GABAA, Flunitrazepam, Central radioligand binding (ligand: [3H] Flunitrazepam); assay type: cell membranes, Rattus norvegicus, Wistar, Brain, Membrane; settings: Not Active = under 50% inhibition at 10 µM
[8] = biological target: T3, Adenosine receptor A1 (Homo sapiens, UniProt P30542); assay type: cell membranes, Membrane; settings: cho;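 also: radioligand binding assay at the adenosine A1 receptor, with DPCPX serving as the labelled ligand; in other assays of this panel Not Active means under 50% inhibition at 10 µM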
T3 sequence (P30542 whole entry): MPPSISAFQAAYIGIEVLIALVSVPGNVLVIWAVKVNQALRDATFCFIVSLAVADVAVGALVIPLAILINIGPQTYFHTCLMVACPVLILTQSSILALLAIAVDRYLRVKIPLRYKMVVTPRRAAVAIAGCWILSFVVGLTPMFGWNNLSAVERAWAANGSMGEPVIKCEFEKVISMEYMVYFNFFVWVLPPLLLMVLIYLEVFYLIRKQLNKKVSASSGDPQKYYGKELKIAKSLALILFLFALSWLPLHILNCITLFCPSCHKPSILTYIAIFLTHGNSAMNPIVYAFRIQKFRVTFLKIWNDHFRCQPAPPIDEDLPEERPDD

Sequence of Vascular endothelial growth factor receptor 1 (P17948 whole entry): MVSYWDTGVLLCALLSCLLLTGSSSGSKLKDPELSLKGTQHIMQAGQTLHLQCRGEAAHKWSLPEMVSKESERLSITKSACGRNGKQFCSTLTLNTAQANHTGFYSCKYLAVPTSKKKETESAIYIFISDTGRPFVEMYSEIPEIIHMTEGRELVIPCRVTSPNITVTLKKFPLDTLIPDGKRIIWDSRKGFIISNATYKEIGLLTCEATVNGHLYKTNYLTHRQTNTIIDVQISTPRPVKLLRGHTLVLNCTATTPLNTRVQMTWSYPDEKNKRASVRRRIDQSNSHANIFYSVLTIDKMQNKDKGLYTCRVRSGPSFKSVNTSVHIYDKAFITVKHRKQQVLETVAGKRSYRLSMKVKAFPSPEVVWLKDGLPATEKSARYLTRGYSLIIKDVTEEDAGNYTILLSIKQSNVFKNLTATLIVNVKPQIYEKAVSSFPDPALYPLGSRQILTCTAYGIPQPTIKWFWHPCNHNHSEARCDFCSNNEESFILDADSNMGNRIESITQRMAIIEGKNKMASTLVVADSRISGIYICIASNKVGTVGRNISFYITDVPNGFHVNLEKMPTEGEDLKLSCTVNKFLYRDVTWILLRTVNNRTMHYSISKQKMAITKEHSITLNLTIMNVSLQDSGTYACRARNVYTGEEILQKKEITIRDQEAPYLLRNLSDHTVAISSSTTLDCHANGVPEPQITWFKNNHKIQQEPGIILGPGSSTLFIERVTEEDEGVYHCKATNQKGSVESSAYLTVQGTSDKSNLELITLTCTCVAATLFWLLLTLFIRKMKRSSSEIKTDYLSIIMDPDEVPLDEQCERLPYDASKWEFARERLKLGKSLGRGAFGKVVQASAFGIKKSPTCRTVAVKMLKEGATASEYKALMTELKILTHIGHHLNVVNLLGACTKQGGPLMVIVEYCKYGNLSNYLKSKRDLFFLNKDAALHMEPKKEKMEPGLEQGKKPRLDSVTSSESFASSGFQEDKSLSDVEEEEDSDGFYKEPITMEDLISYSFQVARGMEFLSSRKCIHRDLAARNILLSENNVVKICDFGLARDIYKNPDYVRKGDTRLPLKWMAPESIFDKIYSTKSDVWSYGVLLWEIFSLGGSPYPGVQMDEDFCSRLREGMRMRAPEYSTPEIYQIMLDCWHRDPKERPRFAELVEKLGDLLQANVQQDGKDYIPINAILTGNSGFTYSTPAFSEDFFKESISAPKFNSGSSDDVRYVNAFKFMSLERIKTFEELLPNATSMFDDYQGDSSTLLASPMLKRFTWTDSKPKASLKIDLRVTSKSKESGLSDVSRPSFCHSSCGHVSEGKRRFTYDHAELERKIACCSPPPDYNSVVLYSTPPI

COc1cccc2c1C(=O)c1c(O)c3c(c(O)c1C2=O)C[C@@](O)(C(=O)CO)C[C@@H]3O[C@H]1C[C@H](N)[C@@H](O)[C@H](C)O1 [EPIRUBICIN]
Not Active: IC50 [1] | IC50 [2] | IC50 [3] | Ki [3] | IC50 [4] | IC50 [5] | Ki [5] | IC50 [6] | IC50 [7] | Ki [7] | IC50 [8]

C#C[C@]1(O)CC[C@H]2[C@@H]3CCc4cc(OC)ccc4[C@H]3CC[C@@]21C [MESTRANOL]
Not Active: IC50 [1] | IC50 [2] | IC50 [3] | Ki [3] | IC50 [4] | IC50 [5] | Ki [5] | IC50 [6] | IC50 [7] | Ki [7] | IC50 [8]

CN(C)c1ccc(C(=C2C=CC(=[N+](C)C)C=C2)c2ccc(N(C)C)cc2)cc1.[Cl-] [GENTIAN VIOLET]
Not Active: IC50 [1] | IC50 [2] | IC50 [3] | Ki [3] | IC50 [4] | IC50 [5] | Ki [5] | IC50 [6] | IC50 [7] | Ki [7] | IC50 [8]

CC(=O)Nc1ccc(O)cc1 [ACETAMINOPHEN]
Not Active: IC50 [1] | IC50 [2] | IC50 [3] | Ki [3] | IC50 [4] | IC50 [5] | Ki [5] | IC50 [6] | IC50 [7] | Ki [7] | IC50 [8]

CCCCN1CCCCC1C(=O)Nc1c(C)cccc1C.Cl (stereo unspecified) [BUPIVACAINE HYDROCHLORIDE]
Not Active: IC50 [1] | IC50 [2] | IC50 [3] | Ki [3] | IC50 [4] | IC50 [5] | Ki [5] | IC50 [6] | IC50 [7] | Ki [7] | IC50 [8]

Nc1ccn([C@@H]2CS[C@H](CO)O2)c(=O)n1 [LAMIVUDINE]
Not Active: IC50 [1] | IC50 [2] | IC50 [3] | Ki [3] | IC50 [4] | IC50 [5] | Ki [5] | IC50 [6] | IC50 [7] | Ki [7] | IC50 [8]

COP(=O)(OC)OC=C(Cl)Cl [DICHLORVOS]
Not Active: IC50 [1] | IC50 [2] | IC50 [3] | Ki [3] | IC50 [4] | IC50 [5] | Ki [5] | IC50 [6] | IC50 [7] | Ki [7] | IC50 [8]

CADMIUM DICHLORIDE
Not Active: IC50 [1] | Ki [1] | IC50 [2] | Ki [2] | IC50 [3] | Ki [3] | IC50 [4] | Ki [4] | IC50 [5] | Ki [5] | IC50 [6] | Ki [6] | IC50 [7] | Ki [7] | IC50 [8] | Ki [8]

C[C@](O)(CS(=O)(=O)c1ccc(F)cc1)C(=O)Nc1ccc(C#N)c(C(F)(F)F)c1 [(R)-BICALUTAMIDE]
Not Active: IC50 [1] | IC50 [2] | IC50 [3] | Ki [3] | IC50 [4] | IC50 [5] | Ki [5] | IC50 [6] | IC50 [7] | Ki [7] | IC50 [8]

Cc1nccn1CC1CCc2c(c3ccccc3n2C)C1=O (stereo unspecified) [ONDANSETRON]
Not Active: IC50 [1] | IC50 [2] | IC50 [3] | Ki [3] | IC50 [4] | IC50 [5] | Ki [5] | IC50 [6] | IC50 [7] | Ki [7] | IC50 [8]

CCOC(=O)[C@H](CCc1ccccc1)N[C@H]1CCc2ccccc2N(CC(=O)O)C1=O [BENAZEPRIL]
Not Active: IC50 [1] | IC50 [2] | IC50 [3] | Ki [3] | IC50 [4] | IC50 [5] | Ki [5] | IC50 [6] | IC50 [7] | Ki [7] | IC50 [8]
